Target: Plasma kallikrein (Homo sapiens, UniProt P03952)
Experiment: Subsequently, PPACK II (Calbiochem) was added as a stop solution to achieve a final concentration of 1 μM and fluorescence was measured using an Envision Reader (PerkinElmer) with the wavelength excitation setting of 355 nm and the wavelength emission setting of 460 nm.Evaluation of the Inhibition of Human KLKB1 in Dextransulfat Activated Human PPP.Platelet poor plasma (PPP) obtained from human wholeblood, anticoagulated with EDTA, was activated with 12.5 μg/mL dextransulfate for 7 min on ice. The activated PPP was incubated with various concentrations of the test compound in assay buffer. […] Measurements were performed in a kinetic interval every 2nd minute for 16 min using a Spectramax M5 (Molecular Devices) with the following settings of the wavelength excitation of 350 nm and wavelength emission of 450 nm.

Sequence of Plasma kallikrein (P03952 20-390 limits assumed): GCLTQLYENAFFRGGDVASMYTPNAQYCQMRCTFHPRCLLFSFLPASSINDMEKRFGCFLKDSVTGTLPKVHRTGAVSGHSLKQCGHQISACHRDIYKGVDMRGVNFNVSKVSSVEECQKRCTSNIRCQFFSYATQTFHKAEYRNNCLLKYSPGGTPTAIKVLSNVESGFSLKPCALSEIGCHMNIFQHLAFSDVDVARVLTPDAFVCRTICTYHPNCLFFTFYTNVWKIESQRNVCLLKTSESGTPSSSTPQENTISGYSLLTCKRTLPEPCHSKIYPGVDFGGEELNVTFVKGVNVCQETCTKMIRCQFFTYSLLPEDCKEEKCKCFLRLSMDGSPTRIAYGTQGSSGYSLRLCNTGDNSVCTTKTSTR
Sequence of Plasma kallikrein (P03952 391-638 limits assumed): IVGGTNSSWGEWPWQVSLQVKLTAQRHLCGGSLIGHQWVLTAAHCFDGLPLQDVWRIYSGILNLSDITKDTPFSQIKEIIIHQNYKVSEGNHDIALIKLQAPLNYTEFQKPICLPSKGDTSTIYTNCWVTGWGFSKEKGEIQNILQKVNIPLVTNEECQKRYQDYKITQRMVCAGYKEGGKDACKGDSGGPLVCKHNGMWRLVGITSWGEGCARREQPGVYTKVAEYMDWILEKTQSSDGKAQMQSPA

Row | IC50 [µM] | Structure (SMILES)
1 | 1.9 | Cc1ccc2cc(Cn3cc(C(=O)N[C@H]4CCc5c4ccnc5N)nn3)ccc2n1
2 | 0.036 | Cc1ccc2cc(Cn3cc(C(=O)N[C@@H]4CCc5c4ccnc5N)nn3)ccc2n1
